Entries after “also recorded” stand apart in the source; their conditions may differ.
How the values were obtained:
[1] = system: HCV RNA in 21-5/R809 cells; experiment: HCV RNA levels after IFN-α treatment of 21-5/R809 cell culture; format: cell-based, hepatitis C virus; details: 21-5/R809 cells incubated with IFN-α
Source text: FIGS. 17 and 18 show levels of HCV RNA or ribosomal RNA after IFN-α treatment of cell culture.

[2] = system: E1 and E2 distribution in 21-5/R809 cells; experiment: Intracellular immunofluorescence of E1/E2 in 21-5/R809 cells before and after IFN-α treatment; format: cell-based, human; details: anti E1/E2 staining, FIG. 16
Method: Cells were stained with anti E1/E2.
Cells were plated on […] coverslips in 24-well plates at a density of 5×10^4 cells per well. One day after seeding, cells were washed in PBS, fixed in 4% formaldehyde for 30 min and then permeabilized with 0.1% Triton X-100 in PBS for 15 min. Cells were then pretreated with blocking solution (0.5% bovin serum albumin in PBS) for 30 min and incubated for 1 h at room temperature with the primary antibodies diluted in blocking solution according to the manufacturer's instructions. After three washes in PBS, AlexaFluor-conjugated secondary antibodies were added to the cells at a 1:200 dilution for 1 h at room temperature. After washings with PBS, coverslips were washed in distilled water, and mounted in aqueous mounting medium Vectashield with DAPI (4′,6′-diamidino-2-phenylindole).

HCV replication = details: reference 101; cited from earlier work

**Q.** With Interferon alpha [IFN-α] as the substance, how does the “HCV RNA levels, absolute” value ([1]; FIG. 17) read?
**A.** decrease

**Q.** And the “HCV RNA levels relative to ribosomal RNA” value ([1]; FIG. 18)?
**A.** decrease

**Q.** And the “ER-pattern distribution of E1 and E2” value [2]?
**A.** lose the typical ER-pattern distribution of E1 and E2; also recorded: changed the ER-pattern distribution of E1 and E2

**Q.** And the “HCV replication in cell culture” value (HCV replication)?
**A.** inhibit HCV replication

— patent US20080311158A1, “Hepatitis C Virus Replication System” (priority 2004, published 2008)
